Entries after “also recorded” stand apart in the source; their conditions may differ. Like-named read-outs stand apart in the source and are kept apart here.
Legend:
[1] = racemic ketorolac 15 or 30 mg; Guo et al. 2015; cited from earlier work
PKHD1−/− organoids [2] = test: CDH1+ distal tubular enlargement / cyst formation by 3D imaging of cleared whole organoids-on-a-chip; assay type: cell-based, human; conditions: for cyst suppression: Z-DEVD-FMK 1 μM, Quercetagetin 10 μM, rhCXCL16 1 ng/ml (FIG. 3D, E)
Procedure: (§1) H9 (WiCell) human ES cells, H9-derived PKHD1 mutants, and ARPKD patient-derived iPSCs (68) were maintained on hESC-qualified Geltrex (Thermo Fisher Scientific) coated plates using StemFit® Basic02 (Ajinomoto Co., Inc.) supplemented with 10 ng/ml of FGF2 (Peprotech), as previously reported (69).
Heterozygotic (PKHD1+/−) and compound homozygotic (PKHD1−/−) mutant lines were generated using methodology previously outlined (70), which generated clones of isogenic progeny via clonal expansion from single cells. PX459 plasmid encoding a Streptococcus pyogenes Cas9 and guide RNA (sgRNA) targeting the third exon of PKHD1 (5′-[…]-3′; SEQ ID NO:1) was transfected into H9 hESCs to generate the heterozygotic mutant line, which then served as the parental line to generate the compound homozygotic mutant. Transfected cells were selected by transient puromycin treatment. CRISPR/Cas9-induced mutations of individual clones were identified by deep sequencing.
The organoids were seeded onto the chip devices on day 14 of their differentiation and cultured on chip by flowing cell culture medium composed of ARMPI with GlutaMAX, 1% Antibiotic/Antimycotic solution (Gibco), and 1.5% heat-inactivated fetal bovine serum (Gibco). All cell culture medium was pre-equilibrated to the cell culture incubator environment for at least 2 hr before chip assembly and seeding. The kidney organoids-on-a-chip was then held in a cell culture incubator for 30 min under static conditions, before connecting the inlet perfusion tubing to an IPC-N peristaltic pump (Ismatech) and perfusing the cell culture media at 42.7 μl/min overnight in the incubator. The following day (day 15 of organoid differentiation), the sterile filter was removed from the perfusion line to avoid bubble formation at high perfusion speeds, and the perfusion speed was ramped up to 4.27 mL/min. Cell culture medium was changed in the reservoir every 2-3 days.
Full media exchanges were conducted every 2-3 days. Treatment of the kidney organoids-on-a-chip was started at day 16 of their differentiation until day 35.
The chip device was taken out of the incubator for fixation, and the lid was carefully removed in a sterile biosafety cabinet. The kidney organoids adherent on the surface of the ECM were rinsed with PBS, carefully overlayed with 4% PFA, and fixed for 45 min at RT. Post fixation, the samples were washed three times with 0.1% Triton-X (Sigma) for 30 min. Organoids were stained and cleared with ethyl cinnamate (Sigma), as described before (78). The following antibodies were used in these studies: anti-CDH1 (Abcam, ab11512), anti-CFTR (Sigma, HPA021939), anti-LTL (Vector lab, B-1325), anti-PODXL (R&D systems, AF1658), anti-K167 (Dako, m7248), Anti-pS6RP (Cell signaling, 2211S), anti-RAC1 (Developmental Studies Hybridoma Bank, CPTC-RAC1-2), anti-FOS (Abcam, ab190289). Samples were examined by a Zeiss TIRF/LSM 710 confocal microscopy or a Leica […] 8 confocal microscopy, and by using Imaris 3D software (Bitplane).
(§2) Data in all bar charts and dot plots are expressed as mean±s.d. Statistical analysis was done in GraphPad Prism 9, and statistical significance was attributed to values of P<0.05 as determined by one-way ANOVA with Tukey's multiple-comparisons test unless otherwise noted. Different significance levels (P values) are indicated in each figure with asterisks: *P<0.05, **P<0.01, ***P<0.001, and ****P<0.0001. […] FIG. 1F; n=74 LTL+ tubules with flow, n=66 LTL+ tubules in static culture, n=191 LTL+ tubules treated with forskolin, n=32 CDH1+ tubules with flow, n=27 CDH1+ tubules in static culture, and n=104 CDH1+ tubules treated with forskolin. FIG. 2C; n=16 tubules transfected with siControl, n=17 tubules transfected with siKIF3A.

[3] = system: ARPKD patient-derived organoids; conditions: prior ARPKD organoid model from patient-derived iPS cells, static culture (ref. 17); cited from earlier work
RAC1 = conditions: cited from earlier work
ARFIP2 [4] = conditions: flow, R-Naproxen 20 μM
Procedure: (§3) Total RNA was isolated from kidney organoid samples using TRIzol (Invitrogen, #15596026). cDNA was synthesized from 500 ng of RNA using a High-capacity cDNA Reverse Transcription kit (Applied Biosystems, #4368814) according to the manufacturer's instructions. Real-time PCR was performed using iTaq SYBR green supermix (Bio-Rad, #1725124) and QuantStudio3 Real-time PCR systems. The expression of mRNA was assessed by evaluating threshold cycle (CT) values. The CT values and relative expression levels were normalized by ribosomal protein S18 (RPS18), and the relative amount of mRNA specific to each of the target genes was calculated (n=3 in each experiment).
as §2, with “siKIF3A. 8 organoids transfected with siControl, and 7 organoids transfected with siKIF3A from 2 independent chips were analyzed in FIG. 2C.” for “siKIF3A.”

BAIAP2 = conditions: flow, R-Naproxen 20 μM
Procedure: as §3
as §2, with “siKIF3A. 8 organoids transfected with siControl, and 7 organoids transfected with siKIF3A from 2 independent chips were analyzed in FIG. 2C.” for “siKIF3A.”

COX = conditions: cited from earlier work
ARFIP2 [5] = conditions: PKHD1−/− organoids, R-Naproxen 20 μM, day 23 (FIG. 5F)
Excerpt: as §2, with “siKIF3A. 8 organoids transfected with siControl, and 7 organoids transfected with siKIF3A from 2 independent chips were analyzed in FIG. 2C.” for “siKIF3A.”

[6] = cited from earlier work
[7] = clinical trials for arthritis / humans (ref. 45); cited from earlier work
DUSP1 = test: qPCR for DUSP1 (FOS downstream gene); assay type: cell-based, human; conditions: PKHD1−/− and ARPKD patient-derived organoids, flow, T-5224 10 μM, day 16 to 23
Procedure: (§4) FIG. 2J; n=4 (perfusion), n=4 (rest). FIG. 2K; n=3. […] 3 independent experiments were performed for FIG. 3E. […] FIG. 4H; n=4 (control), n=4 (ARPKD). FIG. 4I; n=4 (control), n=4 (ARPKD).

NPTX2 = test: qPCR for NPTX2 (FOS downstream gene); assay type: cell-based, human; conditions: PKHD1−/− and ARPKD patient-derived organoids, flow, T-5224 10 μM, day 16 to 23
Procedure: as §4

PRDM1 [8] = test: qPCR for PRDM1 (FOS downstream gene); assay type: cell-based, human; conditions: PKHD1−/− and ARPKD patient-derived organoids, flow, T-5224 10 μM, day 16 to 23
Procedure: as §4

PRDM1 [9] = test: Quantitative immunohistochemistry for PRDM1; assay type: cell-based, human; conditions: PKHD1−/− organoids, T-5224 10 μM, day 23 (FIG. 5F)
Procedure: as §4

FOS = conditions: cited from earlier work
[10] = system: ARPKD patient-derived organoids; test: Cyst formation on cAMP induction in static patient-derived organoids; assay type: cell-based, human
Procedure: as §1
Kidney organoids were cultured in static condition and treated with 20 μM of forskolin (Sigma, #F6886), a cAMP inducer, from day 14 to day 35.
as §4

PKHD1−/− organoids [11] = test: Cyst formation / tubular diameter on forskolin treatment in static culture; assay type: cell-based, human
Excerpt: as §2, with “siKIF3A. 8 organoids transfected with siControl, and 7 organoids transfected with siKIF3A from 2 independent chips were analyzed in FIG. 2C.” for “siKIF3A.”

[12] = PKHD1−/− organoids under flow, day 16 to 35, T-5224 10 μM, NSC23766 10 μM, 2-MeOE2 5 μM (FIG. 3D, E)
[13] = PKHD1−/− organoids under flow, day 16 to 35
[14] = PKHD1−/− organoids-on-a-chip, day 16 to 35, flow, R-Naproxen 20 μM, R-Ketorolac 1 and 10 μM, T-5224 10 μM (FIG. 4B, C)
[15] = ARPKD patient-derived organoids, day 16 to 23 (FIG. 14)
[16] = PKHD1−/− (CRISPR-mutant) organoids, day 16 to 23 (FIG. 5E)
[17] = forskolin 20 μM, static (FIG. 1F right)

For O=C(c1ccccc1)c1ccc2n1CCC2C(=O)O (racemic) [racemic ketorolac], the R-ketorolac level [1] is listed as “achieved likely therapeutic ranges of R-ketorolac”.

For COc1cc2c(cc1O)CC[C@@H]1[C@@H]2CC[C@]2(C)[C@@H](O)CC[C@@H]12 [2-MeOE2, 2-Methoxyestradiol], the “CDH1+ tubular enlargement” value (PKHD1−/− organoids [2]; [12]) was “significant reduction”.

In the case of Nc1ncnc2c1nc(Br)n2[C@@H]1O[C@@H]2COP(=O)(O)O[C@H]2[C@H]1O [8-Br-cAMP, 8-Bromoadenosine 3′,5′-cyclic monophosphate], the “cyst formation in CDH1+ distal nephrons” value [3] is given as “rarely developed cysts” and the “cyst formation in LTL+ proximal tubules” value [3] is given as “formed cystic structures”.

For CCN(CC)CCCC(C)Nc1nc(C)cc(Nc2ccc3nc(C)cc(N)c3c2)n1 (centres unmarked) [NSC23766], the “CDH1+ tubular enlargement” value (PKHD1−/− organoids [2]; [12]) was “significant reduction”.

In the case of O=c1c(O)c(-c2ccc(O)c(O)c2)oc2cc(O)c(O)c(O)c12 [Quercetagetin], the cyst suppression (PKHD1−/− organoids [2]; [13]) is reported as “did not affect cyst suppression”.

For O=C(c1ccccc1)c1ccc2n1CC[C@H]2C(=O)O [R-Ketorolac], the “inhibitory effect against RAC1” value (RAC1) is given as “inhibitory effect against RAC1” and the “CDH1+ tubular enlargement” value (PKHD1−/− organoids [2]; [14]) is given as “significant reductions”.

For COc1ccc2cc([C@@H](C)C(=O)O)ccc2c1 [R-Naproxen], the “ARFIP2 expression (qPCR)” value (ARFIP2 [4]; [15]) was “rescued”, the “ARFIP2 expression (qPCR)” value (ARFIP2 [4]; [16]) was “rescued” and the “BAIAP2 expression (qPCR)” value (BAIAP2; [15]) was “rescued”. The “BAIAP2 expression (qPCR)” value (BAIAP2; [16]) was “rescued”, the COX inhibition (COX) was “limited COX inhibition” and the RAC1 inhibition (RAC1) was “enhanced RAC1 inhibition”. For the same molecule, the “inhibitory effect against RAC1” value (RAC1) was “inhibitory effect against RAC1”, the “ARFIP2 expression (immunohistochemistry), decreased by flow” value (ARFIP2 [5]) was “rescue” and the “CDH1+ tubular enlargement” value (PKHD1−/− organoids [2]; [14]) was “significant reductions”. For the same molecule, the “cyst suppression (general statement)” value (PKHD1−/− organoids [2]; present data, R-Naproxen) was “cyst suppression”.

For COc1ccc2cc([C@H](C)C(=O)O)ccc2c1 [S-Naproxen], the anti-inflammatory effect [6] is listed as “has an anti-inflammatory effect”, the RAC1 inhibitory activity (RAC1) is listed as “lacks RAC1 inhibitory activity” and the cyst formation (PKHD1−/− organoids [2]; PKHD1−/− organoids cultured under flow, S-Naproxen 20 μM (FIG. 11)) is listed as “did not inhibit cyst formation”.

For O=C(O)CCc1cc(C(=O)c2ccc(OC3CCCC3)cc2O)ccc1OCc1ccc2c(O)noc2c1 [T-5224, 3-{5-[4-(cyclopentyloxy)-2-hydroxybenzoyl]-2-[(3-hydroxy-1,2-benzisoxazol-6-yl)methoxy]phenyl}propionic acid], the safety profile [7] is given as “favorable safety profile; also recorded: proven to be safe in humans”, the “DUSP1 expression (qPCR)” value (DUSP1) is given as “reverse expression” and the “NPTX2 expression (qPCR)” value (NPTX2) is given as “reverse expression”. For the same molecule, the “PRDM1 expression (qPCR)” value (PRDM1 [8]) was “reverse expression”, the “CDH1+ tubular enlargement” value (PKHD1−/− organoids [2]; [12]) was “significant reduction” and the “CDH1+ tubular enlargement” value (PKHD1−/− organoids [2]; [14]) was “significant reductions”. For the same molecule, the “PRDM1 expression (immunohistochemistry), decreased by flow” value (PRDM1 [9]) was “rescue” and the FOS inhibition (FOS) was “selective FOS inhibitor; also recorded: specific FOS inhibitor”.

With C=C[C@@]1(C)CC(=O)[C@]2(O)[C@@]3(C)[C@@H](O)CCC(C)(C)[C@@H]3[C@H](O)[C@H](OC(C)=O)[C@@]2(C)O1 [forskolin] the cyst formation ([10]; ARPKD patient-derived organoids, forskolin 5, 10, 20 μM (FIGS. 6A-G)) was “form cysts”, the “cyst formation in LTL+ proximal tubules” value ([10]; static organoids derived from ARPKD-patient iPSCs) was “induced cyst formation” and the cyst formation (PKHD1−/− organoids [11]; forskolin 20 μM (FIGS. 8A-H)) was “form cysts”. For the same molecule, the “diameter in LTL+ CDH− (proximal) tubules” value (PKHD1−/− organoids [11]; [17]) was “increases”, the “diameter in LTL− CDH1+ (distal) tubules” value (PKHD1−/− organoids [11]; [17]) was “increases” and the “cyst formation in CDH1+ distal nephrons” value [3] was “rarely developed cysts”. The “cyst formation in LTL+ proximal tubules” value [3] was “formed cystic structures”.

With Z-DEVD-FMK the cyst suppression (PKHD1−/− organoids [2]; [13]) was “marginal effect”.

B1: rhCXCL16: recombinant human C—X—C Motif Chemokine Ligand 16 (rhCXCL16) for CXCL16 (protein, UniProt Q9H2A7 30-254, looked up)
C-X-C motif chemokine 16: NEGSVTGSCYCGKRISSDSPPSVQFMNRLRKHLRAYHRCLYYTRFQLLSWSVCGGNKDPWVQELMSCLDLKECGHAYSGIVAHQKHLLPTSPPISQASEGASSDIHTPAQMLLSTLQSTQRPTLPVGSLSSDKELTRPNETTIHTAGHSLAAGPEAGENQKQPEKNAGPTARTSATVPVLCLLAIIFILTAALSYVLCKRRRGQSPQSSPDLPVHYIPVAPDSNT
For B1, the cyst suppression (PKHD1−/− organoids [2]; [13]) was “did not affect cyst suppression”.

Source: patent US20260345561A1, “METHODS AND COMPOSITIONS FOR USE IN TREATING AUTOSOMAL RECESSIVE POLYCYSTIC KIDNEY DISEASE (ARPKD)” (The General Hospital Corporation, priority 2022, published 2026)
